According to US20150141448A1, “Topical Ophthalmological Pharmaceutical Composition containing Pazopanib” (BAYER HEALTHCARE LLC, priority 2012, published 2015):
Structures can show the parent of a compound that is named as a salt.

Test: Solubility in lipophilic vehicles
Type: physicochemical
Details: lipophilic vehicles like liquid or light liquid paraffin

solubility in lipophilic vehicles: very low
SMILES: Cc1ccc(Nc2nccc(N(C)c3ccc4c(C)n(C)nc4c3)n2)cc1S(N)(=O)=O [pazopanib hydrochloride, 5-[[4-[(2,3-Dimethyl-2H-indazol-6-yl)methylamino]-2-pyrimidinyl]amino]-2-methylbenzolsulfonamide]
